# Laboratory results taken from patent US6461997B1, “Triazole sulfones having herbicidal activity” (Monsanto Technology LLC, priority 1999, dated 2002).
# Experiments:
# AMARE (redroot pigweed) = assay: Pre-emergence herbicidal activity, warm season; type: in vivo, Amaranthus retroflexus; conditions: for Pre-emergence activity (GR80) AMARE: GR80 = lowest tested rate (300, 100, 30, 10 g/ha) with 80% or greater inhibition, approx. 14 days after treating, 30/21° C.
# Outline: (§1)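 Seeds sown in sterilised fertilised topsoil received surface-applied compound in 50:50 acetone/water, typically at 300, 100, 30 and 10 g/ha, then greenhouse-grown at 30/21° C (warm-season species) or 18/13° C (cool-season species). Percent inhibition versus untreated plants was scored at about 14 days, giving GR80; an asterisk marks activity short of 80% at the top rate.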
# ECHCG (barnyardgrass) = assay: Pre-emergence herbicidal activity, warm season; type: in vivo, Echinochloa crus-galli; conditions: for Pre-emergence activity (GR80) ECHCG: GR80 = lowest tested rate (300, 100, 30, 10 g/ha) with 80% or greater inhibition, approx. 14 days after treating, 30/21° C.
# Outline: (§2)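 Activity is expressed as the rate giving 80% inhibition, with 300, 100, 30 and 10 g/ha typically tested. An asterisk marks activity short of 80% at the top rate. Warm-season grasses were held at 30/21 °C; cool-season blackgrass and wild buckwheat at 18/13 °C; scoring at about 14 days.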
# [1] = test system: SORHA (johnsongrass (seedling)); assay: Pre-emergence herbicidal activity, warm season; type: in vivo, Sorghum halepense; conditions: for Pre-emergence activity (GR80) SORHA: GR80 = lowest tested rate (300, 100, 30, 10 g/ha) with 80% or greater inhibition, approx. 14 days after treating, 30/21° C.
# Outline: as §2
# PANDI (fall panicum) = assay: Pre-emergence herbicidal activity, warm season; type: in vivo, Panicum dichotomiflorum; conditions: GR80 = lowest tested rate (300, 100, 30, 10 g/ha) with 80% or greater inhibition; approx. 14 days after treating; 30/21° C.
# Outline: as §2
# [2] = test system: BRAPP (broadleaf signalgrass); assay: Pre-emergence herbicidal activity, warm season; type: in vivo, Brachiaria platyphylla; conditions: for Pre-emergence activity (GR80) BRAPP: GR80 = lowest tested rate (300, 100, 30, 10 g/ha) with 80% or greater inhibition, approx. 14 days after treating, 30/21° C.
# Outline: as §2
# [3] = test system: AGSST (creeping bentgrass); assay: Pre-emergence herbicidal activity, cool season; type: in vivo, Agrostis stolonifera; conditions: GR80 = lowest tested rate (300, 100, 30, 10 g/ha) with 80% or greater inhibition; approx. 14 days after treating; 18/13° C.
# Outline: as §1
# SORVU (shattercane) = assay: Pre-plant incorporated (PPI) herbicidal activity, warm season; type: in vivo, Sorghum vulgare; conditions: for inhibition at 10 g/ha / inhibition at 30 g/ha / inhibition at 100 g/ha / inhibition at 300 g/ha / inhibition at 900 g/ha: Sorghum bicolor, PPI application, read-out: Percent inhibition SORVU; for PPI activity GR80, SORVU: pre-plant incorporated, lowest tested rate with 80% or greater inhibition, about 14 days
# Protocol: (§3) In another set of tests, the pre-plant incorporated (PPI) activity of compounds of this invention was evaluated on the same species as for the pre-emergence tests described above. In the PPI tests the following procedure, designed to simulate PPI application, was used.
# (§4) A pre-prepared topsoil mixture (described above) was placed in a pot and compacted to a depth of 1.0 to 1.25 cm from the top of the pot. Seeds of each of several monocotyledonous and dicotyledonous annual plant species were placed on top of the soil. A sufficient quantity of soil to cover the seeds and level fill the pot was weighed into an open container. A known amount of the test compound was dissolved or suspended in an organic solvent and applied by spraying to this cover soil. The cover soil was thoroughly mixed to distribute the test compound throughout the cover soil, and was then applied as a cover layer over the seeds. Untreated soil was used as a cover layer for control pots. After treatment the plants were placed in a greenhouse where they received 0.64 cm of overhead irrigation. All subsequent watering consisted of a light overhead mist and/or subirrigation as needed for germination and growth. Tables 9 and 10 below relate to warm season plant species which were placed after pre-emergence treatment in a greenhouse with a 30/21° C. day/night temperature regime. Tables 11 and 12 below relates to cool season plant species placed after pre-emergence treatment in a greenhouse or growth chamber with an 18/13° C. day/night temperature regime. Only the compounds of Examples 1, 6, 8, 11, 13 and 15-20 were included in PPI tests.
# (§5) Approximately 14 days after planting and treating, the plants were observed and herbicidal efficacy recorded as percent inhibition by comparison with untreated plants.
# [4] = test system: LAMPU (purple deadnettle); assay: Pre-plant incorporated (PPI) herbicidal activity, cool season; type: in vivo, Lamium purpureum; conditions: for PPI activity GR80, LAMPU: pre-plant incorporated, lowest tested rate with 80% or greater inhibition, about 14 days
# Protocol: as §3, §4, §5
# ALOMY (blackgrass) = assay: as above; type: in vivo, Alopecurus myosuroides; conditions: for PPI activity GR80, ALOMY: pre-plant incorporated, lowest tested rate with 80% or greater inhibition, about 14 days
# Protocol: as §3, §4, §5
# SETVI (green foxtail) = assay: as above; type: in vivo, Setaria viridis; conditions: for PPI activity GR80, SETVI: pre-plant incorporated, lowest tested rate with 80% or greater inhibition, about 14 days
# Protocol: as §3, §4, §5
# wheat (TRZAW) = assay: Selectivity test, PPI, cool season crop; type: in vivo, Triticum aestivum; conditions: Triticum aestivum, PPI application, read-out: Percent inhibition TRZAW
# Protocol: as §4, §5
# Additional pre-emergence and PPI tests were conducted by the procedures described above, on warm and cool season weed species in the presence of crop species, to assess herbicidal selectivity. Crop species included in warm season tests were corn (Zea mays, ZEAMX), rice (Oryza sativa, ORYSA) and soybean (Glycine max, GLYMX). Crop species included in cool season tests were wheat (Triticum aestivum, TRZAW), barley (Hordeunm vulgare, HORVX) and oilseed rape (Brassica napus, BRSNS).
# Tables 15 and 16 relate to pre-emergence and PPI tests respectively on warm season species. Table 17 relates to pre-emergence tests on cool season species.
structure (smiles),measurement,setting,value
"C=CCC(F)(F)S(=O)(=O)c1ncn(C(=O)N(CC)CC)n1 [Example 17, 1-(N,N-diethylcarbamoyl)-3-[(1,1-difluoro-3-butenyl)sulfonyl]-1,2,4-triazole]",Pre-emergence activity (GR80) AMARE,AMARE (redroot pigweed),300 g/ha
same,Pre-emergence activity (GR80) ECHCG,ECHCG (barnyardgrass),100 g/ha
same,Pre-emergence activity (GR80) SORHA,[1],100 g/ha
same,Pre-emergence activity (GR80) PANDI,PANDI (fall panicum),100 g/ha
same,Pre-emergence activity (GR80) BRAPP,[2],300 g/ha
same,Pre-emergence activity (GR80) AGSST,[3],100 g/ha
same,inhibition at 10 g/ha,SORVU (shattercane),20%
same,inhibition at 30 g/ha,SORVU (shattercane),70%
same,inhibition at 100 g/ha,SORVU (shattercane),100%
same,inhibition at 300 g/ha,SORVU (shattercane),100%
same,inhibition at 900 g/ha,SORVU (shattercane),100%
same,"PPI activity GR80, SORVU",SORVU (shattercane),"* (activity observed, at least at highest rate, but <80% inhibition)"
same,inhibition at 10 g/ha,"[4]; Lamium purpureum, weed, PPI application, 10 g/ha, read-out: Percent inhibition LAMPU",100%
same,inhibition at 30 g/ha,"[4]; Lamium purpureum, weed, PPI application, 30 g/ha, read-out: Percent inhibition LAMPU",100%
same,inhibition at 100 g/ha,"[4]; Lamium purpureum, weed, PPI application, 100 g/ha, read-out: Percent inhibition LAMPU",100%
same,inhibition at 300 g/ha,"[4]; Lamium purpureum, weed, PPI application, 300 g/ha, read-out: Percent inhibition LAMPU",100%
same,inhibition at 900 g/ha,"[4]; Lamium purpureum, weed, PPI application, 900 g/ha, read-out: Percent inhibition LAMPU",100%
same,"PPI activity GR80, LAMPU",[4],30 g/ha
same,inhibition at 10 g/ha,"ALOMY (blackgrass); Alopecurus myosuroides, weed, PPI application, 10 g/ha, read-out: Percent inhibition ALOMY",50%
same,inhibition at 30 g/ha,"ALOMY (blackgrass); Alopecurus myosuroides, weed, PPI application, 30 g/ha, read-out: Percent inhibition ALOMY",60%
same,inhibition at 100 g/ha,"ALOMY (blackgrass); Alopecurus myosuroides, weed, PPI application, 100 g/ha, read-out: Percent inhibition ALOMY",100%
same,inhibition at 300 g/ha,"ALOMY (blackgrass); Alopecurus myosuroides, weed, PPI application, 300 g/ha, read-out: Percent inhibition ALOMY",90%
same,inhibition at 900 g/ha,"ALOMY (blackgrass); Alopecurus myosuroides, weed, PPI application, 900 g/ha, read-out: Percent inhibition ALOMY",100%
same,"PPI activity GR80, ALOMY",ALOMY (blackgrass),30 g/ha
same,inhibition at 10 g/ha,"SETVI (green foxtail); Setaria viridis, weed, PPI application, 10 g/ha, read-out: Percent inhibition SETVI",40%
same,inhibition at 30 g/ha,"SETVI (green foxtail); Setaria viridis, weed, PPI application, 30 g/ha, read-out: Percent inhibition SETVI",70%
same,inhibition at 100 g/ha,"SETVI (green foxtail); Setaria viridis, weed, PPI application, 100 g/ha, read-out: Percent inhibition SETVI",70%
same,inhibition at 300 g/ha,"SETVI (green foxtail); Setaria viridis, weed, PPI application, 300 g/ha, read-out: Percent inhibition SETVI",100%
same,inhibition at 900 g/ha,"SETVI (green foxtail); Setaria viridis, weed, PPI application, 900 g/ha, read-out: Percent inhibition SETVI",100%
same,"PPI activity GR80, SETVI",SETVI (green foxtail),30 g/ha
same,inhibition at 10 g/ha,wheat (TRZAW); 10 g/ha,0%
same,inhibition at 30 g/ha,wheat (TRZAW); 30 g/ha,0%
same,inhibition at 100 g/ha,wheat (TRZAW); 100 g/ha,10%
same,inhibition at 300 g/ha,wheat (TRZAW); 300 g/ha,30%
same,inhibition at 900 g/ha,wheat (TRZAW); 900 g/ha,60%
"CCN(CC)C(=O)n1cnc(S(=O)(=O)C(F)F)n1 [Example 15, 1-(N,N-diethylcarbamoyl)-3-(difluoromethylsulfonyl)-1,2,4-triazole]",inhibition at 10 g/ha,"AMARE (redroot pigweed); Amaranthus retroflexus, pre-emergence application, 10 g/ha, read-out: Percent inhibition, weed AMARE",0%
same,inhibition at 30 g/ha,"AMARE (redroot pigweed); Amaranthus retroflexus, pre-emergence application, 30 g/ha, read-out: Percent inhibition, weed AMARE",0%
same,inhibition at 100 g/ha,"AMARE (redroot pigweed); Amaranthus retroflexus, pre-emergence application, 100 g/ha, read-out: Percent inhibition, weed AMARE",0%
same,inhibition at 300 g/ha,"AMARE (redroot pigweed); Amaranthus retroflexus, pre-emergence application, 300 g/ha, read-out: Percent inhibition, weed AMARE",40%
same,inhibition at 900 g/ha,"AMARE (redroot pigweed); Amaranthus retroflexus, pre-emergence application, 900 g/ha, read-out: Percent inhibition, weed AMARE",95%
same,Pre-emergence activity (GR80) AMARE,AMARE (redroot pigweed),30 g/ha
same,inhibition at 10 g/ha,"ECHCG (barnyardgrass); Echinochloa crus-galli, pre-emergence application, 10 g/ha, read-out: Percent inhibition, weed ECHCG",0%
same,inhibition at 30 g/ha,"ECHCG (barnyardgrass); Echinochloa crus-galli, pre-emergence application, 30 g/ha, read-out: Percent inhibition, weed ECHCG",0%
same,inhibition at 100 g/ha,"ECHCG (barnyardgrass); Echinochloa crus-galli, pre-emergence application, 100 g/ha, read-out: Percent inhibition, weed ECHCG",20%
same,inhibition at 300 g/ha,"ECHCG (barnyardgrass); Echinochloa crus-galli, pre-emergence application, 300 g/ha, read-out: Percent inhibition, weed ECHCG",60%
same,inhibition at 900 g/ha,"ECHCG (barnyardgrass); Echinochloa crus-galli, pre-emergence application, 900 g/ha, read-out: Percent inhibition, weed ECHCG",70%
same,Pre-emergence activity (GR80) ECHCG,ECHCG (barnyardgrass),100 g/ha
same,Pre-emergence activity (GR80) SORHA,[1],100 g/ha
same,inhibition at 10 g/ha,"[1]; Sorghum halepense, pre-emergence application, 10 g/ha, read-out: Percent inhibition, weed SORHA",0%
same,inhibition at 30 g/ha,"[1]; Sorghum halepense, pre-emergence application, 30 g/ha, read-out: Percent inhibition, weed SORHA",0%
same,inhibition at 100 g/ha,"[1]; Sorghum halepense, pre-emergence application, 100 g/ha, read-out: Percent inhibition, weed SORHA",30%
same,inhibition at 300 g/ha,"[1]; Sorghum halepense, pre-emergence application, 300 g/ha, read-out: Percent inhibition, weed SORHA",95%
same,inhibition at 900 g/ha,"[1]; Sorghum halepense, pre-emergence application, 900 g/ha, read-out: Percent inhibition, weed SORHA",100%
same,Pre-emergence activity (GR80) PANDI,PANDI (fall panicum),100 g/ha
same,Pre-emergence activity (GR80) BRAPP,[2],300 g/ha
same,inhibition at 10 g/ha,"[2]; Urochloa platyphylla, pre-emergence application, 10 g/ha, read-out: Percent inhibition, weed BRAPP",0%
same,inhibition at 30 g/ha,"[2]; Urochloa platyphylla, pre-emergence application, 30 g/ha, read-out: Percent inhibition, weed BRAPP",0%
same,inhibition at 100 g/ha,"[2]; Urochloa platyphylla, pre-emergence application, 100 g/ha, read-out: Percent inhibition, weed BRAPP",40%
same,inhibition at 300 g/ha,"[2]; Urochloa platyphylla, pre-emergence application, 300 g/ha, read-out: Percent inhibition, weed BRAPP",50%
same,inhibition at 900 g/ha,"[2]; Urochloa platyphylla, pre-emergence application, 900 g/ha, read-out: Percent inhibition, weed BRAPP",85%
same,inhibition at 10 g/ha,SORVU (shattercane),10%
same,inhibition at 30 g/ha,SORVU (shattercane),60%
same,inhibition at 100 g/ha,SORVU (shattercane),100%
same,inhibition at 300 g/ha,SORVU (shattercane),100%
same,inhibition at 900 g/ha,SORVU (shattercane),100%
same,"PPI activity GR80, SORVU",SORVU (shattercane),300 g/ha
same,"PPI activity GR80, LAMPU",[4],300 g/ha
same,"PPI activity GR80, ALOMY",ALOMY (blackgrass),100 g/ha
same,"PPI activity GR80, SETVI",SETVI (green foxtail),100 g/ha
CCN(CC)C(=O)n1cnc(S(=O)(=O)C(F)(F)C(F)(F)SC)n1 [Example 14],Pre-emergence activity (GR80) AMARE,AMARE (redroot pigweed),300 g/ha
same,Pre-emergence activity (GR80) ECHCG,ECHCG (barnyardgrass),300 g/ha
same,Pre-emergence activity (GR80) SORHA,[1],300 g/ha
same,Pre-emergence activity (GR80) PANDI,PANDI (fall panicum),100 g/ha
same,Pre-emergence activity (GR80) BRAPP,[2],300 g/ha
same,Pre-emergence activity (GR80) AGSST,[3],30 g/ha
